Laboratory results reported in ChEMBL document CHEMBL1150939, “Symplostatin 1: A dolastatin 10 analogue from the marine cyanobacterium Symploca hydnoides” (J Nat Prod, 1998).
≈ marks a conversion by molar mass, not a printed value.

Experiments:
KB = assay: Cytotoxicity against human KB cells; format: functional, cell-based
A10 = assay: Induction of microtubule loss in rat A10 cells at 1 ng/mL; format: functional

Compound | IC50 (KB) | Activity (A10)
CC[C@H](C)[C@@H]([C@@H](CC(=O)N1CCC[C@H]1[C@H](OC)[C@@H](C)C(=O)N[C@@H](Cc1ccccc1)c1nccs1)OC)N(C)C(=O)[C@@H](NC(=O)[C@H](C(C)C)N(C)C)C(C)C [DOLASTATIN-10] | < 0.1 ng/mL | 
CC[C@H](C)[C@@H]([C@@H](CC(=O)N1CCC[C@H]1[C@H](OC)[C@@H](C)C(=O)N[C@@H](Cc1ccccc1)c1nccs1)OC)N(C)C(=O)[C@@H](NC(=O)[C@H]([C@@H](C)CC)N(C)C)C(C)C [SYMPLOSTATIN 1] | 0.3 ng/mL (≈ 0.375 nM) | 80%
